Consider 3 compounds from paper PMC8717366, “Synthesis and Pharmacological Characterization of Visabron, a Backbone Cyclic Peptide Dual Antagonist of α4β1 (VLA-4)/α9β1 Integrin for Therapy of Multiple Sclerosis” (JACS Au, 2021).

One experiment has as its target T1, α1β1-collagen IV (Homo sapiens, UniProt P05556+P56199).
T1 construct: expressed in transfected cells; host or cells: K562 transfected with α1 integrin (gift of Dr. M. Hemler)
The experiment can be described thus: Adhesion of α1-K562 overexpressor cells to immobilized collagen IV. The class given is cell-based. The following applies: α1-K562 overexpressed cells; 30 min at 37 °C; read-out: IC50 α1β1-collagen IV. Here is the method:
(§1) Cell adhesion assay was carried out as previously described[47] with minor modifications. The day before the experiment, each well was coated with VCAM-1 (3 mg/mL) immobilized on the 96-well plate in PBS by overnight incubation at 4 °C. Thereafter, nonspecific binding was blocked by incubating the wells with 1% (w/v) bovine serum albumin (BSA) in Hank’s Balanced Salt Solution (HBSS) containing 5 mM MgCl2 at room temperature for 1 h before use. The cells were labeled by incubation with 12.5 μM 5-chloromethylfluorescein diacetate (CMFDA) in HBSS without 1% BSA at 37 °C for 30 min. The labeled cells were then centrifuged at 1000 rpm and washed twice with HBSS containing 1% BSA to remove excess CMFDA. Labeled cells (about 1 × 10^5 cells/well) were plated on each well in the presence or absence of visabrons and incubated at 37 °C for 60 min. Unbound cells were removed by washing the wells three times with 1% (w/v) BSA in HBSS, and bound cells were lysed by the addition of 0.5% Triton X-100 (diluted in DDW). The fluorescence in each well was quantified with a SPECTRAFluor Plus plate reader (Tecan), at λex = 485 nm and λem = 530 nm. To determine the number of adhered cells from the fluorescence values, a standard curve was generated by serial dilution of known numbers of CMFDA-labeled cells. […]
(§2) Table S6. TMLD- linear peptides inhibition of adhesion of integrin expressing cells to the respective immobilized ligands a a The cells were incubated for 30 min at 37 °C with the cells (1 x 105) in the 96 -well plate, previously covered with extracellular matrix ligand, in 100 µL of HBSS containing calcium and magnesium. After being washed with the same buffer, the adhered cells were lysed by Triton X-100, and the plate was read using Tecan spectrofluorimeter. The inhibitory dose 50% (IC 50) values represent ing mean ± standard deviatio ns (n=6) were calculated from dose response curves. bJurkat cells,VCAM -1; c α9-SW480 overexpressing cells, VCAM-1; d α1-K562 overexpressing cells, collagen IV ;e α2-K562 overexpressing cells, collagen I; f K562 wild type

Another experiment has as its target α9β1-VCAM-1 Fc chimera (Homo sapiens, UniProt P05556+Q13797). The experiment can be described thus: ELISA binding assay, α9β1 to VCAM-1 Fc chimera. For orientation: In an ELISA, binding on a coated surface is turned into a signal by an enzyme label.
Another experiment addresses T2, α4β7-MAdCAM-1 Fc chimera (Homo sapiens, UniProt P13612+P26010).
T2 construct: purchased R&D Systems Co (Minneapolis, MN)
The experiment can be described thus: ELISA solid-phase ligand-receptor binding, integrin α4β7 to MAdCAM-1 Fc chimera. As to the method: (§3) Recombinant human VCAM-1 and MadCAM-1 (3 mg/mL in phosphate-buffered saline containing divalent cations), were immobilized on the wells of a 96-well ELISA plate (Dynatech Immulon) by overnight incubation at 4 °C. After washing with HBSST (Hanks’ Balanced Salt solution containing calcium and magnesium and 0.05% Tween-20) the plates were blocked with 5% BSA in HBSST by incubation at 37 °C for 1 h. The plates were washed with HBSST, and recombinant human integrin α4β1 or α4β7 (3 mg/mL) was added in the presence or absence of competitor cyclic peptides, disintegrins, or monoclonal anti-integrin antibodies dissolved in HBSS containing 1% BSA. The plates were thereafter incubated at 30 °C for 3 h, as time-binding had reached a plateau, and then washed 3 times with HBSST. Bound integrins were quantitated using primary anti-integrin polyclonal and monoclonal antibodies at a concentration of 0.5 mg/mL in HBSST containing 1% BSA, and incubated at 37 °C for 1 h. The plates were washed 3 times with HBSST and secondary antibodies- alkaline phosphatase (AP) conjugated (Sigma Co.) were added at dilution 1:1000 and incubated at 37 °C for 1 h. Thereafter, the plates were washed 3 times with HBSST and twice with HBSS and the alkaline phosphatase substrate 4-nitrophenyl phosphate was added to the wells for 30 min. The plates were read using Tecan Spectrophotometer at 405 nm. The level of nonspecific binding was measured in each experiment by determining the level of binding to wells coated with BSA alone.

In experiment [1] the target is T3, α4β1 (Jurkat lymphocytes-VCAM-1) (Homo sapiens, UniProt P05556+P13612).
T3 construct: host or cells: Jurkat (untreated or TNFα-treated)
The experiment can be described thus: Adhesion of Jurkat lymphocytes to immobilized VCAM-1. The class given is cell-based. As to the method: as §1, §2

In a further experiment the target is T4, α5β1-fibronectin (Homo sapiens, UniProt P05556+P08648).
T4 construct: host or cells: K562 wild type
T4 sequence (P08648 42-894 limits assumed): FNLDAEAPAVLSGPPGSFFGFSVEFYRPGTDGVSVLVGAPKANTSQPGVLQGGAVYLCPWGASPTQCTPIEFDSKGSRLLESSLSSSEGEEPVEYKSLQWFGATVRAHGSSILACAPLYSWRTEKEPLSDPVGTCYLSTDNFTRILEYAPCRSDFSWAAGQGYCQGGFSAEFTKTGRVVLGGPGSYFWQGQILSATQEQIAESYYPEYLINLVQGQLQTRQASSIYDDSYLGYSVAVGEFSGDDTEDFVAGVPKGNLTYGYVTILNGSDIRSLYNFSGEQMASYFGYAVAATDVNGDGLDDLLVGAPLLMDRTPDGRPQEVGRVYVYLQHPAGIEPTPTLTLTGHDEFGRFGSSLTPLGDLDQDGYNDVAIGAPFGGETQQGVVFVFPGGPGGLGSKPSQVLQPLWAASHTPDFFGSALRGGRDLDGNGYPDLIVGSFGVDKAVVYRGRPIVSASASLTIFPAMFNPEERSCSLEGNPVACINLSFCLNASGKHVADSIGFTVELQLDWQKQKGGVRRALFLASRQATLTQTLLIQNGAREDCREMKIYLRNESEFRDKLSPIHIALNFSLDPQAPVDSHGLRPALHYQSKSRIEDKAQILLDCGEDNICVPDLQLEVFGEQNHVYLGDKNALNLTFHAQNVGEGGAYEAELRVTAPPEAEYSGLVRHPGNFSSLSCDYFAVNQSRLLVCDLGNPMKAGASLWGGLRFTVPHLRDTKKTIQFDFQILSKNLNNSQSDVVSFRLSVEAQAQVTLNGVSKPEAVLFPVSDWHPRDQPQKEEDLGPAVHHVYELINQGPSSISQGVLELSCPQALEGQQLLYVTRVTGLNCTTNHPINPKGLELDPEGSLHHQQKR
T4 sequence (P08648 895-1049 limits assumed): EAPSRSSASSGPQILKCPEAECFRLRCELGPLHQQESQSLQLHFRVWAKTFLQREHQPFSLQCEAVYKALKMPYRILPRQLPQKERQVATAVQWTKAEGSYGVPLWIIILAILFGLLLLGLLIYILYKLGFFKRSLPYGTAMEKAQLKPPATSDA
T4 sequence (P05556 21-798): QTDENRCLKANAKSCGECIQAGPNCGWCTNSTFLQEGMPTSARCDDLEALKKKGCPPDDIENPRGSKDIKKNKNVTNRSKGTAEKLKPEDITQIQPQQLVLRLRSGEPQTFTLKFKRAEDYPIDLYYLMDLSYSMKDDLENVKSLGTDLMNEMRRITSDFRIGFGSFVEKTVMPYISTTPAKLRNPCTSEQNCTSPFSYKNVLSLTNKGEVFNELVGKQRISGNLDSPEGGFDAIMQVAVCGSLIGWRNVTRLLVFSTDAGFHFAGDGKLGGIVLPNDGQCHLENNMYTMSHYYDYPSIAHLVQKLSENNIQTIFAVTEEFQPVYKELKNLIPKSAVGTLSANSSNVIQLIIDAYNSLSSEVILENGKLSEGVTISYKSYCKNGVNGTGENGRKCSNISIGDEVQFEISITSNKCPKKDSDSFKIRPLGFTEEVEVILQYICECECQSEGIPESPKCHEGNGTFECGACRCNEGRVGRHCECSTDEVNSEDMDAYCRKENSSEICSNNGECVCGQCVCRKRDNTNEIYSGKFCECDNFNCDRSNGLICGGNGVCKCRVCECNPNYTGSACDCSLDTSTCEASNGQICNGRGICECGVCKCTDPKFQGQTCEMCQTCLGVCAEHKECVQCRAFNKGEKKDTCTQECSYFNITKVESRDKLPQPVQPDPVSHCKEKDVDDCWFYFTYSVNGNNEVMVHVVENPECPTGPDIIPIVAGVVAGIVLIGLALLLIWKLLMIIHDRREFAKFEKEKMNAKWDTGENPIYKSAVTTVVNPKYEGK
The experiment can be described thus: Adhesion of wild-type K562 cells to immobilized fibronectin. The settings on record: wild-type K562 (α5β1); 30 min at 37 °C; read-out: IC50 α5β1-fibronectin. The class given is cell-based. As to the method: as §1, §2

A further experiment has as its target T5, α4β1-VCAM-1 Fc chimera (Homo sapiens, UniProt P05556+P13612).
T5 construct: purchased R&D Systems Co (Minneapolis, MN)
The experiment can be described thus: ELISA solid-phase ligand-receptor binding, integrin α4β1 to VCAM-1 Fc chimera. As to the method:
as §3

Another experiment concerns the target T6, α2β1-collagen I (Homo sapiens, UniProt P05556+P17301).
T6 construct: expressed in transfected cells; host or cells: K562 transfected with α2 integrin (gift of Dr. M. Hemler)
The experiment can be described thus: Adhesion of α2-K562 overexpressor cells to immobilized collagen I. The following applies: α2-K562 overexpressed cells; 30 min at 37 °C; read-out: IC50 α2β1-collagen I. In kind it is cell-based. Here is the method:
as §1, §2

Setting [2] is: Jurkat treated with TNF-α (10 ng/mL) for 24 h, read-out: IC50 Jurkat lymphocytes-VACAM-1 TNFα.
Setting [3] is: untreated Jurkat lymphocytes (α4β1), read-out: IC50 Jurkat lymphocytes-VACAM-1 control.

Like-named read-outs stand apart in the source and are kept apart here. Numbered stars: 1 amine (or outer) side, 2 acyl side, 3 side chain; on linkers, the order of the positions; unused ones are H or OH. Bridge positions count the residues as written; N and C are the ends. Square brackets hold non-standard residues; d marks the D form. Peptide text beside a SMILES is read from it. N(2-Aminoethyl)Gly = O=C(CN(CCN[*:3])[*:1])[*:2]; CO = O=C([*:1])[*:2]; Nlys = NCCCCNCC(=O)O

α9β1-VCAM-1 Fc chimera, sequence (Q13797 30-1035, change not shown): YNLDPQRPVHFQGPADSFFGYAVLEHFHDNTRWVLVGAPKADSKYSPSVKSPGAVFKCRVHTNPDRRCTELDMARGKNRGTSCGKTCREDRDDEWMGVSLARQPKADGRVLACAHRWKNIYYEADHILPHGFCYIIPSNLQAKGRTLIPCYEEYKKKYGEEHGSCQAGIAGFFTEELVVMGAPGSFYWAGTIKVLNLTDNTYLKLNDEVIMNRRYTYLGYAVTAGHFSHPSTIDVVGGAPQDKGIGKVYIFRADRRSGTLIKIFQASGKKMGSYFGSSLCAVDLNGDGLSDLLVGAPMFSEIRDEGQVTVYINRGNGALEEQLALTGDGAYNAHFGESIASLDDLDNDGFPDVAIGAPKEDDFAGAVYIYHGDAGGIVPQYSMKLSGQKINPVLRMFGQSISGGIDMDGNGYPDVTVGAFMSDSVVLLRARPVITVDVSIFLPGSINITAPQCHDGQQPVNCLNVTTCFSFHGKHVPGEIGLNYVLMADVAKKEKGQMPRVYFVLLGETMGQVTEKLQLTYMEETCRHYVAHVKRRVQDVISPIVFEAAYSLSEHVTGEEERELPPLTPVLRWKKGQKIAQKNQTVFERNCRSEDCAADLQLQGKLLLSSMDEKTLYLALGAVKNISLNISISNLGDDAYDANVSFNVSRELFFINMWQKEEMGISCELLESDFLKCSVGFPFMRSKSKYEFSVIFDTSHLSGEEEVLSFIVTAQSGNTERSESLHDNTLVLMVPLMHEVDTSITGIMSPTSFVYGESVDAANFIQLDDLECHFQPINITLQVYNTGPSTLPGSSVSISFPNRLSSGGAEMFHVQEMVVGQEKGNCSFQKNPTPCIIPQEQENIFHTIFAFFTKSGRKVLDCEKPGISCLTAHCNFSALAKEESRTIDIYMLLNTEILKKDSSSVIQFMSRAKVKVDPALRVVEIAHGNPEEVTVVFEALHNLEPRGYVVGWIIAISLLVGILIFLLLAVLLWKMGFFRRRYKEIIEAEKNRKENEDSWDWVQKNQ
α9β1-VCAM-1 Fc chimera, sequence (P05556 21-798, change not shown): as the sequence (P05556 21-798) above
T1 sequence (P56199 29-1179): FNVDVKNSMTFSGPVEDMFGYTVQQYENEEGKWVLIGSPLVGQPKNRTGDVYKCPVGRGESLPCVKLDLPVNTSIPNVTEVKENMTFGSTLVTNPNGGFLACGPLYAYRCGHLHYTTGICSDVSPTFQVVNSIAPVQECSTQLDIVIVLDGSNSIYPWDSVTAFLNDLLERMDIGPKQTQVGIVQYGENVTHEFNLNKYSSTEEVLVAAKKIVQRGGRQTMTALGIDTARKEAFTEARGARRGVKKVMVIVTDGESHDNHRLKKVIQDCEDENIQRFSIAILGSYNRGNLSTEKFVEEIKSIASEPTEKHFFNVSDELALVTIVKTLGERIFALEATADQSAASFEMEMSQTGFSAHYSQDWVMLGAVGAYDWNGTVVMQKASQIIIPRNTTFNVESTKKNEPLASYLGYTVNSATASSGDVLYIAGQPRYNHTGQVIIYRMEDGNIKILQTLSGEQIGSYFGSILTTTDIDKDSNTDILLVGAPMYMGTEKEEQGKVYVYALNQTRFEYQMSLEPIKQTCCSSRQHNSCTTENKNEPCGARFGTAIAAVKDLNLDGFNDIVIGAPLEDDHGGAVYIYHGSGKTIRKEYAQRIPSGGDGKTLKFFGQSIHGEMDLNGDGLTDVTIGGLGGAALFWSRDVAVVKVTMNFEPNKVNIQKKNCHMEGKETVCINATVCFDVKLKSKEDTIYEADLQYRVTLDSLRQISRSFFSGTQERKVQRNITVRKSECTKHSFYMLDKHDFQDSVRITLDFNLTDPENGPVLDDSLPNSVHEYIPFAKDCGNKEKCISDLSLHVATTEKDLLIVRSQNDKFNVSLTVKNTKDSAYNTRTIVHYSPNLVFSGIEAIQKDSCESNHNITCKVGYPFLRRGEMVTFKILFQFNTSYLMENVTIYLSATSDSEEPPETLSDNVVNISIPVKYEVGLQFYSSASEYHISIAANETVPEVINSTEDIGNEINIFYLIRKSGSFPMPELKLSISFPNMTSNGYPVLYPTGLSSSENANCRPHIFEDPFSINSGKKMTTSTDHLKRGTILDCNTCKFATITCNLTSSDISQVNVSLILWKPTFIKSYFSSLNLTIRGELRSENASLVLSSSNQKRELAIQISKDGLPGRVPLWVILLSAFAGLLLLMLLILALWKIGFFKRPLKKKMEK
T1 sequence (P05556 21-798): as the sequence (P05556 21-798) above

The IC50 is the midpoint of a concentration-inhibition curve. On to “natalizumab: clinical-grade monoclonal antibody anti-α4β1 produced by Biogen Co. [reference compound]”, for which the IC50 is over 10000 µM in the experiment with α1β1-collagen IV; 0.015 µM in the experiment with α9β1-VCAM-1 Fc chimera (ELISA binding assay per footnote b, α9-B1LBC3 overexpressed cells named in footnote a, read-out: IC50 α9β1-VCAM-1 Fc chimera); 0.015 µM in the experiment with α4β7-MAdCAM-1 Fc chimera (ELISA binding assay, recombinant human MAdCAM-1 chimera, read-out: IC50 α4β7-MAdCAM-1 Fc chimera); 0.002 µM in experiment [1] (setting [2]); 0.005 µM in experiment [1] (setting [3]); over 10000 µM with α5β1-fibronectin. Further, the half-maximal inhibitory concentration (IC50) with α4β1-VCAM-1 Fc chimera (ELISA binding assay, recombinant human VCAM-1 chimera, read-out: IC50 α4β1-VCAM-1 Fc chimera) is 0.01 µM; with α2β1-collagen I it was over 10000 µM.
Take `CSCC[C@@H]1NC(=O)[C@H]([C@@H](C)O)NC(=O)CN(C(=O)[C@@H](N)CCCCN)CCNC(=O)NCCN(CC(=O)N[C@@H](CC(C)C)C(N)=O)C(=O)[C@H](CC(=O)O)NC(=O)[C@H](CC(C)C)NC1=O` [visabron c (2–2)] (H-K[N(2-Aminoethyl)Gly]TMLD[N(2-Aminoethyl)Gly]L-NH2; linker 2-7 via CO): the half-inhibitory concentration (IC50) on α1β1-collagen IV is over 10000 µM; at α9β1-VCAM-1 Fc chimera, 3.6 µM; at α4β7-MAdCAM-1 Fc chimera, over 500 µM; in experiment [1] (setting [2]), 0.5 µM; in experiment [1] (setting [3]), 7 µM; at α5β1-fibronectin, over 10000 µM. The half-maximal inhibitory concentration (IC50) was 2.3 µM on α4β1-VCAM-1 Fc chimera and over 10000 µM at α2β1-collagen I.
For `CSCC[C@@H]1NC(=O)[C@H]([C@@H](C)O)NC(=O)CN(C(=O)[C@@H](N)CCCCN)CCCCNC(=O)NCCCCN(CC(=O)N[C@@H](CC(C)C)C(N)=O)C(=O)[C@H](CC(=O)O)NC(=O)[C@H](CC(C)C)NC1=O` [visabron c (4–4)] (H-K[Nlys]TMLD[Nlys]L-NH2; linker 2-7 via CO), the IC50 at α1β1-collagen IV is over 10000 µM; at α9β1-VCAM-1 Fc chimera it was 0.4 µM; on α4β7-MAdCAM-1 Fc chimera, over 500 µM; in experiment [1] (setting [2]) it was 0.4 µM; in experiment [1] (setting [3]) it was 5 µM; on α5β1-fibronectin, over 10000 µM. Besides, the values for the IC50 at α4β1-VCAM-1 Fc chimera and on α2β1-collagen I were 0.4 µM and over 10000 µM, respectively.
